From patent US20240331158A1, “CELL PAINTING AND ANALYSIS IN 3D CELLULAR MODELS” (priority 2023, published 2024)
Structures can show the parent of a compound that is named as a salt. Where two headings read alike, the source gives them in different places. *1 amine or outer side, *2 acyl side, *3 side chain or, on linkers, in order; H or OH if unused. Where a SMILES comes first, the peptide text is derived from it. Bridges are numbered along the chain shown (N, C = ends). Roman numbers before positions name the chains, in order. [ ]: non-standard residue; d: D form. Actinocin(9to1) = Cc1c2oc3c(C)ccc(C(=O)[*:1])c3nc-2c(C(=O)[*:2])c(N)c1=O; NMeV = CN[C@H](C(=O)O)C(C)C; Sar = CNCC(=O)O

How the values were obtained:
TU-BcX-4IC tumoroids [1] = test: Cell Painting assay adapted for 3D tumoroids, phenotypic distance score and cluster analysis; conditions: 10 μM, phenotypic distance relative to DMSO controls
Experimental: For phenotypic profiling, the tumoroids were treated with a single 10 μM concentration of compound, using the methods described above. Notable changes in the staining protocol included increased times for dye incubation, fixation, and permeabilization. […] Images were acquired with Z-stacks using 20× magnification, and the analysis was carried out on projection (maximum) images.
Unlike the previous analysis that included cell count or live-dead evaluation, multiple read-outs may be collected from the whole spheroid to form their phenotypic profile. […] Instead, the spheroid images may also acquired in transmitted light (bright field), and these images may be used to identify the spheroid structures using a deep learning-based image segmentation approach which may improve the analysis. Features extracted from each spheroid may include object morphologies, intensities, and texture measurements for, e.g., the six cell stains and bright field images.
To determine hits from the assay, a phenotypic distance score may be calculated based on the PCA (principal component analysis) components.
This score is a measure of the phenotypic effect of the compounds on the tumoroids relative to the controls. All hits may then be clustered based on their phenotypic profiles using the normalized principal component scores.
To image the organoids labeled with the cell painting dyes, the ImageXpress Confocal HT.ai system, equipped with a laser light source, was used for image acquisition. The confocal mode (pinhole size 60 μm) was used to image organoids with a 20× Plan Apo Lambda, NA 0.75 objective, with z-stacking enabled (5p m step size). The maximum projection image was selected in the acquisition setup.
Images were analyzed using MetaXpress Software (Molecular Devices). […] For the Cell Painting analysis, image analysis was done in the IN Carta image analysis software. To segment the organoids, a deep learning-based model was created based on the TL channel to segment individual organoids. Following segmentation, measurements that include intensity, shape, area, and texture were extracted from all 6 fluorescent channels. In total, 210 analytical features were obtained from each organoid.
The plate was first incubated with MitoTracker DeepRed (500 nM) for 2 hours. The samples were fixed with 4% paraformaldehyde (PFA) in HBSS for 60 minutes. All wash steps were carried out by exchanging half the volume in each well with HBSS to minimize displacement of the organoids from the center of the well.
Measurements from IN Carta were exported as a CSV file and uploaded into StratoMineR (Core Life Analytica), a web-based data analytics platform for hit picking and phenotypic clustering.

TU-BcX-4IC tumoroids [2] = test: Library screening of NCI approved anti-cancer drugs: tumoroid integrity/disintegration by nuclear count in projection images (viability/spheroid disintegration assay); conditions: for Viability HIT?: also hit in viability/spheroid disintegration assay, 10 μM; for minimal effective concentration: Homo sapiens, TU-BcX-4IC, 120 h
Experimental: In addition, positive and negative controls were included in the test plates.
During incubation with compounds, tumoroids were monitored daily using TL imaging. Image analysis allowed characterization of tumoroid size, diameter, compactness, and integrity, as well as optical density (FIG. 2B, FIG. 7). Images of tumoroids were taken prior to compound treatment, and during day 3 and day 5 of compound treatment. For the end point assay, tumoroids were stained with viability and nuclear dyes on day 5 of compound treatment. Cells were stained with a combination of Hoechst, calcein AM, and Ethidium Homodimer III (EthD-III) and analyzed using high content imaging for complex phenotypic analysis; a subset of plates was set aside for additional assays including Cell Painting.
Images of organoids were taken with a 10× objective using Z-stack with a step size of 8 mm. Nuclei, live cells, and dead cells of stained cells were detected using DAPI, FITC, and TexasRed channels respectively. Maximum projection images were created from Z-stacks and analyzed as described in Methods. Multiple read-outs were generated characterizing spheroid area, diameter, intensities, and cell viability. In addition, cells inside each spheroid were counted using a nuclear stain. […] Suspended cells were plated into U-shape 384 well plates using a Biomek i7 automated liquid handler, incubated for 48 hours, and then treated with compounds, stained, and imaged. The protocols for compound additions, media, and staining included gentle media dispensing processes. Consecutively, tumoroids were cultured and monitored by automated imaging. Additionally, use of a collaborative robot enabled moving plates from the incubator to the imaging system, where transmitted light imaging or fluorescent imaging protocols were initiated.
For screening the compound library, maximum projection images may be employed. Spheroid disintegration is visible as an increase of spheroid size, in contrast to nicely shaped, round images of intact spheroids. Tumoroid disintegration can be described by several measurements: for example, increase in organoid area/diameter. Most accurate measurements may be done by counting cells or nuclei inside organoids using maximum projection images. […] Disintegrated tumoroids are made up of cells which are not held together in a tight aggregate but instead are loosely piled up in the well bottom resulting in 1) an increased projected area and 2) an increase in nuclear count in the projection images.
Simple nuclei count analysis in projection images was used as a reliable surrogate marker for organoid integrity/dis-integration.

TU-BcX-4IC tumoroids [3] = test: Secondary follow-up 3D assay, 7-point concentration curves, tumoroid disintegration measurement; type: cell-based, human; conditions: 3D assay, 7-point concentration curves, 5 days, nuclear count in projection images
Experimental: 10 compounds, including panobinostat, carfilzomib, and bortezomib were tested across 7 concentrations in the 1-10000 nM range. Spheroids were treated for 5 days with these compounds, then stained as described above (FIG. 4). […] EC50 values (Table 2) were determined using tumoroid disintegration measurement (nuclear count in projection images).
Automated staining of spheroids was performed for one hour. After staining, dye solution was replaced with 1×PBS.

TU-BcX-4IC 3D cultures [4] = test: Imaging read-out, 3D culture; conditions: Homo sapiens, 120 h, read-out: EC50, Imaging 3D
Experimental: (§1) Cell metabolism may be measured by ATP level as another readout for effects of anti-cancer drugs that is related to cytotoxicity. In the present examples, a subset of 12 compounds were used for evaluation of compound effects, using the CellTiter-Glo 3D assay (Promega), which detects ATP levels. Compounds may be tested using 7 point 5× dilutions starting from 100 uM. In the present examples, compound effects on 2D culture and 3D cultures were compared, using imaging and CellTiter-Glo 3D methods. Cultures were set up in parallel, using same cell number (2000). Cultures were allowed to grow for 48 hours, then treated with compounds for 5 days.
(§2) Images were analyzed using MetaXpress Software (Molecular Devices). Count Nuclei or Cell Scoring application modules were used for nuclear count live/dead assessment, or evaluation of cell number positive for specific markers. Output measurements included spheroid width, spheroid area, average intensity for calcein AM or EthD-III, counts of all nuclei, and evaluation of average nuclear size and average intensities. In addition, calcein AM-positive cells were counted, and their area and intensity values were recorded. In addition to cell count, areas and intensities could be determined for live (EthD-III negative) and dead (EthD-III positive) cells.

TU-BcX-4IC 3D cultures [5] = test: CellTiter-Glo 3D ATP assay, 3D culture; conditions: Homo sapiens, TU-BcX-4IC, 120 h, read-out: EC50, ATP 3D
Experimental: (§3) Cell metabolism may be measured by ATP level as another readout for effects of anti-cancer drugs that is related to cytotoxicity. […] Compounds may be tested using 7 point 5× dilutions starting from 100 uM. In the present examples, compound effects on 2D culture and 3D cultures were compared, using imaging and CellTiter-Glo 3D methods. Cultures were set up in parallel, using same cell number (2000). Cultures were allowed to grow for 48 hours, then treated with compounds for 5 days.

TU-BcX-4IC 2D culture [6] = test: Imaging read-out, 2D culture; conditions: Homo sapiens, 120 h, read-out: EC50, Imaging 2D
Experimental: as §1, §2

TU-BcX-4IC 2D culture [7] = test: CellTiter-Glo 3D ATP assay, 2D culture; conditions: Homo sapiens, TU-BcX-4IC, 120 h, read-out: EC50, ATP 2D
Experimental: as §3

[8] = read-out: Effective concentration, 3D tumoroids, 5 days treatment, tumoroid integrity by nuclear count, tested at 10 nM to 100 uM
[9] = Homo sapiens, TU-BcX-4IC, 120 h, read-out: EC50
[10] = read-out: Effective concentration

| Compound | Distance Score (TU-BcX-4IC tumoroids [1]) | minimal effective concentration (TU-BcX-4IC tumoroids [2]; [8]) [µM] | other results |
| --- | --- | --- | --- |
| CCN1CCN(Cc2ccc(Nc3ncc(F)c(-c4cc(F)c5nc(C)n(C(C)C)c5c4)n3)nc2)CC1 [Abemaciclib] | 5.819 |  |  |
| CN(C)C/C=C/C(=O)Nc1cc2c(Nc3ccc(F)c(Cl)c3)ncnc2cc1O[C@H]1CCOC1 [Afatinib] | 5.047 |  |  |
| Cc1nc(NC(=O)N2CCC[C@H]2C(N)=O)sc1-c1ccnc(C(C)(C)C(F)(F)F)c1 [Alpelisib] | 5.834 |  | Viability HIT? (TU-BcX-4IC tumoroids [2]): yes |
| Cn1cc(-c2cc3c(N4CCN(c5ncc([C@@](C)(N)c6ccc(F)cc6)cn5)CC4)ncnn3c2)cn1 [Avapritinib] | 5.386 |  | Viability HIT? (TU-BcX-4IC tumoroids [2]): no |
| O=C(/C=C/c1cccc(S(=O)(=O)Nc2ccccc2)c1)NO [Belinostat] | 5.348 | 0.1 | Viability HIT? (TU-BcX-4IC tumoroids [2]): yes |
| COc1cc(Nc2c(C#N)cnc3cc(OCCCN4CCN(C)CC4)c(OC)cc23)c(Cl)cc1Cl [Bosutinib] |  | 0.1 |  |
| COc1cc(N2CCC(N3CCN(C)CC3)CC2)ccc1Nc1ncc(Cl)c(Nc2ccccc2P(C)(C)=O)n1 [Brigatinib] | 5.771 | 1 |  |
| Cc1ccc(-c2cc(C(F)(F)F)nn2-c2ccc(S(N)(=O)=O)cc2)cc1 [Celecoxib] |  |  | EC50 (TU-BcX-4IC tumoroids [3]): no effect |
| C[C@@H](Oc1cc(-c2cnn(C3CCNCC3)c2)cnc1N)c1c(Cl)ccc(F)c1Cl [Crizotinib] |  |  | EC50 (TU-BcX-4IC tumoroids [3]; [9]): > 1000 nM |
| Cc1c2oc3c(C)ccc(C(=O)N[C@@H]4C(=O)N[C@H](C(C)C)C(=O)N5CCC[C@H]5C(=O)N(C)CC(=O)N(C)[C@@H](C(C)C)C(=O)O[C@@H]4C)c3nc-2c(C(=O)N[C@@H]2C(=O)N[C@H](C(C)C)C(=O)N3CCC[C@H]3C(=O)N(C)CC(=O)N(C)[C@@H](C(C)C)C(=O)O[C@@H]2C)c(N)c1=O [Dactinomycin] (I: T[dV]P[Sar][NMeV] / II: T[dV]P[Sar][NMeV]; ester I:1-I:C, II:1-II:C; linker I:N-II:N via Actinocin(9to1)) |  |  | EC50 (TU-BcX-4IC 3D cultures [4]): 33 nM; Efficacy at low concentrations (TU-BcX-4IC tumoroids [2]; library screen, tumoroid integrity by nuclear count): efficacy at low concentrations; EC50 (TU-BcX-4IC 3D cultures [5]): 5 nM; EC50 (TU-BcX-4IC 2D culture [6]): < 10 nM; EC50 (TU-BcX-4IC 2D culture [7]): < 10 nM |
| Cc1nc(Nc2ncc(C(=O)Nc3c(C)cccc3Cl)s2)cc(N2CCN(CCO)CC2)n1 [Dasatinib] |  | 0.1 |  |
| COC(=O)N[C@@H](C)CNc1nccc(-c2cn(C(C)C)nc2-c2cc(Cl)cc(NS(C)(=O)=O)c2F)n1 [Encorafenib] | 5.516 |  | Viability HIT? (TU-BcX-4IC tumoroids [2]): no |
| CN1CCN(c2ccc(C(=O)Nc3n[nH]c4ccc(Cc5cc(F)cc(F)c5)cc34)c(NC3CCOCC3)c2)CC1 [Entrectinib] | 4.843 |  | Viability HIT? (TU-BcX-4IC tumoroids [2]): yes |
| COc1cccc2c1C(=O)c1c(O)c3c(c(O)c1C2=O)C[C@@](O)(C(=O)CO)C[C@@H]3O[C@H]1C[C@H](N)[C@@H](O)[C@H](C)O1 [Epirubicin hydrochloride] | 5.883 | 1 |  |
| Cc1cnc(Nc2ccc(OCCN3CCCC3)cc2)nc1Nc1cccc(S(=O)(=O)NC(C)(C)C)c1 [Fedratinib] |  | 1 |  |
| C[C@]12CC[C@@H]3c4ccc(O)cc4C[C@@H](CCCCCCCCC[S+]([O-])CCCC(F)(F)C(F)(F)F)[C@H]3[C@@H]1CC[C@@H]2O (stereo partly drawn) [Fulvestrant] |  | 0.01 |  |
| CCc1nc(C(N)=O)c(Nc2ccc(N3CCC(N4CCN(C)CC4)CC3)c(OC)c2)nc1NC1CCOCC1 [Gilteritinib] | 5.239 | 1 |  |
| C=CC(=O)N1CCC[C@@H](n2nc(-c3ccc(Oc4ccccc4)cc3)c3c(N)ncnc32)C1 [Ibrutinib] |  |  | EC50 (TU-BcX-4IC 3D cultures [4]): ~20000 nM; EC50 (TU-BcX-4IC 3D cultures [5]): 15800 nM; EC50 (TU-BcX-4IC 2D culture [6]): 20200 nM; EC50 (TU-BcX-4IC 2D culture [7]): 25000 nM |
| CC(=O)[C@]1(O)Cc2c(O)c3c(c(O)c2[C@@H](O[C@H]2C[C@H](N)[C@H](O)[C@H](C)O2)C1)C(=O)c1ccccc1C3=O [Idarubicin hydrochloride] |  | 1 | EC50 (TU-BcX-4IC 3D cultures [4]): 3930 nM; EC50 (TU-BcX-4IC 3D cultures [5]): 145 nM; EC50 (TU-BcX-4IC 2D culture [6]): ~1000 nM; EC50 (TU-BcX-4IC 2D culture [7]): 67 nM |

| Compound | Distance Score (TU-BcX-4IC tumoroids [1]) | minimal effective concentration (TU-BcX-4IC tumoroids [2]; [8]) [µM] | other results |
| --- | --- | --- | --- |
| CC(C)C[C@H](NC(=O)CNC(=O)c1cc(Cl)ccc1Cl)B1OC(=O)C(CC(=O)O)(CC(=O)O)O1 [Ixazomib citrate] |  | 0.1 |  |
| O=C(Nc1cnn2ccc(N3CCC[C@@H]3c3cc(F)ccc3F)nc12)N1CC[C@H](O)C1 [Larotrectinib] | 5.667 |  | Viability HIT? (TU-BcX-4IC tumoroids [2]): no |
| CO[C@@]12[C@H](COC(N)=O)C3=C(C(=O)C(C)=C(N)C3=O)N1C[C@@H]1N[C@@H]12 [Mitomycin] |  | 1 |  |
| Clc1ccc(C(c2ccccc2Cl)C(Cl)Cl)cc1 (stereo not drawn) [Mitotane] |  | 0.1 |  |
| COC(=O)C[C@](O)(CCCC(C)(C)O)C(=O)O[C@@H]1C(OC)=C[C@]23CCCN2CCc2cc4c(cc2[C@H]13)OCO4 [Omacetaxine] |  |  | Effective concentration (TU-BcX-4IC tumoroids [2]; 3D tumoroids, 5 days treatment, tumoroid integrity by nuclear count, tested at 10 nM to 100 uM): 1 µM; EC50 (TU-BcX-4IC tumoroids [3]; read-out: EC50): < 100 nM |
| C=CC(=O)Nc1cc(Nc2nccc(-c3cn(C)c4ccccc34)n2)c(OC)cc1N(C)CCN(C)C [Osimertinib] | 5.241 |  | Viability HIT? (TU-BcX-4IC tumoroids [2]): yes |
| CC(=O)O[C@H]1C(=O)[C@@]2(C)[C@H]([C@H](OC(=O)c3ccccc3)[C@]3(O)C[C@H](OC(=O)[C@H](O)[C@@H](NC(=O)c4ccccc4)c4ccccc4)C(C)=C1C3(C)C)[C@]1(OC(C)=O)CO[C@@H]1C[C@@H]2O [Paclitaxel] |  | 1 | EC50 (TU-BcX-4IC tumoroids [3]; [9]): 2900 nM |
| Cc1ccc(C(=O)Nc2ccc(CN3CCN(C)CC3)c(C(F)(F)F)c2)cc1C#Cc1cnc2cccnn12 [Ponatinib] |  |  | minimal effective concentration (TU-BcX-4IC tumoroids [2]; [10]): 0.1 µM |
| CNC(=O)c1cc(Oc2ccc(NC(=O)Nc3ccc(Cl)c(C(F)(F)F)c3)c(F)c2)ccn1 [Regorafenib] |  | 0.1 |  |
| O=C(/C=C\n1cnc(-c2cc(C(F)(F)F)cc(C(F)(F)F)c2)n1)NNc1cnccn1 [Selinexor] | 5.004 |  | Viability HIT? (TU-BcX-4IC tumoroids [2]): no |
| CCN(CC)CCNC(=O)c1c(C)[nH]c(/C=C2\C(=O)Nc3ccc(F)cc32)c1C [Sunitinib] |  |  | EC50 (TU-BcX-4IC tumoroids [3]; [9]): 1700 nM |
| Oc1ncc(N(CCCl)CCCl)c(O)n1 [Uracil mustard] |  |  | minimal effective concentration (TU-BcX-4IC tumoroids [2]; [10]): 1 µM |
| CCCCC(=O)OCC(=O)[C@]1(O)Cc2c(O)c3c(c(O)c2[C@@H](O[C@H]2C[C@H](NC(=O)C(F)(F)F)[C@H](O)[C@H](C)O2)C1)C(=O)c1c(OC)cccc1C3=O [Valrubicin] | 8.136 |  | Viability HIT? (TU-BcX-4IC tumoroids [2]): yes |
| COc1cc2c(Nc3ccc(Br)cc3F)ncnc2cc1OCC1CCN(C)CC1 [Vandetanib] | 5.185 | 1 |  |
| CC1(C)CCC(CN2CCN(c3ccc(C(=O)NS(=O)(=O)c4ccc(NCC5CCOCC5)c([N+](=O)[O-])c4)c(Oc4cnc5[nH]ccc5c4)c3)CC2)=C(c2ccc(Cl)cc2)C1 [Venetoclax] | 4.922 | 1 |  |
| CC[C@]1(O)C[C@@H]2CN(CCc3c([nH]c4ccccc34)[C@@](C(=O)OC)(c3cc4c(cc3OC)N(C)[C@H]3[C@@](O)(C(=O)OC)[C@H](OC(C)=O)[C@]5(CC)C=CCN6CC[C@]43[C@@H]65)C2)C1 [Vinblastine sulfate] |  | 0.1 |  |
| CC[C@]1(O)C[C@H]2CN(CCc3c([nH]c4ccccc34)[C@@](C(=O)OC)(c3cc4c(cc3OC)N(C=O)[C@H]3[C@@](O)(C(=O)OC)[C@H](OC(C)=O)[C@]5(CC)C=CCN6CC[C@]43[C@@H]65)C2)C1 [Vincristine sulfate] |  | 0.1 |  |
| O=C(CCCCCCC(=O)Nc1ccccc1)NO [Vorinostat] | 5.079 | 1 | Viability HIT? (TU-BcX-4IC tumoroids [2]): no |
| Dabrafenib mesylate | 6.249 |  | Viability HIT? (TU-BcX-4IC tumoroids [2]): yes |
